Key:
[1] = system: B16-melanoma cells adhesion to FN; assay: Inhibition of B16-melanoma cell adhesion to FN; assay type: cell-based, murine
[2] = system: CD4^+ T cell adhesion to FN; assay: Inhibition of activated CD4+ T cell adhesion to FN; assay type: cell-based, human
Experimental: To examine the adhesive properties of the T cells, 1 μg/50 μl/well of either fibronectin (FN) (Sigma), the 120 kD cell attachment fragment of FN (Telios Pharm. Inc. San Diego, CA), or laminin (LN) (Sigma), were added to 96-flat bottom microtiter-wells for 12 h. Unbound proteins were then washed away and remaining binding sites were blocked with 0.1% bovine serum albumin (BSA) added to the wells for 2 h and washed. CD4+T cells were purified from peripheral blood mononuclear leukocytes obtained from healthy human donors. The mononuclear cells were isolated using a Ficoll gradient, washed and incubated in RPMI supplemented with 10% fetal calf serum (FCS) and antibiotics in petri dishes at 37° C. humidified CO2 incubator. After 2 h, the non-adherent cells were isolated and applied on nylon-wool columns (1.5 h). CD4^+ T cells were then negatively selected by exposure of the cells to a cocktail of anti-CD8, CD19, and CD14 monoclonal antibodies (mAb) conjugated to magnetic-beads (Advanced Magnetics, MA). Unbound cells were recovered and their phenotype was examined. Purity of the CD4^+ T cells was always greater than 92% as determined by FACScan.
The purified CD4^+ T cells were radioactively labeled with ^51 [Cr](New England Nuclear) in RPMI +20% FCS for 2 h and washed. The cells were counted and seeded (0.2×10^5 cells) on the precoated microtiter wells in the presence or the absence of the various inhibitors. Coating was made either with FN, the 120 kD cell-attachment fragment of FN or with control adhesive protein laminin (LN). The inhibitors were various surrogates according to the invention, other test molecules or mAb. After 30 min incubation (in […] CO2 -- humidified incubator) the T cells were activated by 10 ng/ml phorbol myristate acetate (PMA) and the percent of T cells attached to the protein substrates was measured. Unbound cells were washed away after 20-30 min, the bound cells were lysed and their radioactivity was measured using radioactive counter. The amount of the radioactivity of the cell lysates represent the matrix-adherent cells and percent binding was calculated in comparison to the total radioactivity added to the wells. Activated T cell adhesion to control wells or to wells coated with BSA was always 2-5%; the level of adhesion of the non-activated T cells was always below 5%. Where indicated, 1/200 diluted mAb anti-CD29 (anti-β1 mAb Serotec, GB), or 1/400 diluted anti-VLA5 (the β1α5 FN-integrin receptor) mAb (Telios Pharm. Inc. San Diego), or 0.2 mM of RGD, GRGDSPK or GRGESP peptides (Sigma) were used. […] The results shown in Tables 1A, 1B and 1C represent data obtained from several experiments that produced essentially similar results.
In a second series of experiments, FN was used in the adhesion assay carried out with the RGD surrogates NS-8, NS-11 and NS-15 in comparison to RGDS peptide.
In a third series of experiments, FN was used in the adhesion assay with the surrogates SF-6,5 and NS-11 and compared to the peptide GRGDSP.

N=C(N)NCCCCCC(=O)NCCCCC(=O)O [SF-6,5, 6-aza-7-oxo-12-quanidino-dodecanoic acid]
% Adhesion of activated tumor cells to FN: (% inhibition) ([1]; Conc. 25 μg. ml): 10%
% Adhesion of activated tumor cells to FN: (% inhibition) ([1]; Conc. 50 μg. ml): 20%
% Adhesion of activated tumor cells to FN: (% inhibition) ([1]; Conc. 100 μg. ml): 30%
% Adhesion of activated tumor cells to FN: (% inhibition) ([1]; Conc. 200 μg. ml): 45%
% Adhesion of activated CD4^+ T cell to FN: (% inhibition) ([2]; Conc. 25 μg. ml): 10%
% Adhesion of activated CD4^+ T cell to FN: (% inhibition) ([2]; Conc. 50 μg. ml): 25%
% Adhesion of activated CD4^+ T cell to FN: (% inhibition) ([2]; Conc. 100 μg. ml): 38%
% Adhesion of activated CD4^+ T cell to FN: (% inhibition) ([2]; Conc. 200 μg. ml): 55%
